The numbers were not newly measured in patent US20260327216A1, “SUBSTITUTED OXAZOLONE COMPOUND FOR DECREASING LEVELS OF IKZF I-4 PROTEINS” (BRISTOL-MYERS SQUIBB COMPANY, priority 2023, published 2026), which cites them from elsewhere.

The structures appear in SMILES notation.

Data set [1] has as its system solid tumors. As to conditions: patients with solid tumors / advanced malignancies; cited from earlier work.
In data set [2] the test system is highly immunogenic syngeneic tumors. As to conditions: engineered mouse models; Geng et al., 2022; cited from earlier work.
The subject of data set [3] is T and NK cell functions. As to conditions: preclinical and clinical studies; cited from earlier work.

For `Nc1cccc2c1C(=O)N(C1CCC(=O)NC1=O)C2=O` (centres unmarked) [pomalidomide], the “clinical response in patients with solid tumors” value (“clinical response in patients” below) in data set [1] is listed as “modest responses of stable disease”. Regarding `Cc1nc2cccc(N)c2c(=O)n1C1CCC(=O)NC1=O` (centres unmarked) [avadomide], the “clinical response in patients” value in data set [1] is “modest responses of stable disease”.

Take `Nc1cccc2c1CN(C1CCC(=O)NC1=O)C2=O` (centres unmarked) [lenalidomide]: the “antitumor immune responses against highly immunogenic syngeneic tumors” value in data set [2] is recorded as “modestly increase antitumor immune responses”. Further, the “clinical response in patients” value in data set [1] is given as “modest responses of stable disease”. Besides, the “effect on T and NK cell functions” value in data set [3] was “augment T and NK cell functions”.
